Test results from the supplement of paper PMC10307832.

Legend:
Test in all cases: relative viability (nuclei count vs DMSO), 5 days (fraction); higher = more cells survive
[1] = tested on: NCI-H661
Outline: (§1)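 Medians of duplicate plates are given as relative viability. That measure is the nuclei count in treated wells divided by the count in vehicle wells. Counts were taken on 4× images of lung cancer cell lines in 1536-well plates, 5 days after pin-tool dosing the day after seeding with one drug alone or a fixed anchor-drug dose plus five library-drug doses (not always all listed) in √10 steps.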

[2] = tested on: NCI-H2228
Outline: as §1

[3] = tested on: RERF-LC-KJ
Outline: as §1

[4] = tested on: NCI-H1755
Outline: as §1

[5] = tested on: NCI-H1734
Outline: as §1

[6] = tested on: NCI-H520
Outline: as §1

[7] = tested on: HCC-827
Outline: as §1

[8] = tested on: NCI-H1355
Outline: as §1

[9] = tested on: NCI-H2342
Outline: as §1

[10] = tested on: LCLC-97TM1
Outline: as §1

[11] = tested on: HCC-15
Outline: as §1

[12] = tested on: NCI-H1650
Outline: as §1

[13] = tested on: H3255
Outline: as §1

[14] = tested on: CAL-12T
Outline: as §1

[15] = tested on: PC-3 [JPC-3]
Outline: as §1

[16] = tested on: LK-2
Outline: as §1

[17] = tested on: EKVX
Outline: as §1

[18] = tested on: NCI-H2405
Outline: as §1

[19] = tested on: NCI-H322M
Outline: as §1

[20] = tested on: PC-14
Outline: as §1

[21] = tested on: NCI-H1975
Outline: as §1

O=c1cc(-c2cccc3c2Sc2ccccc2S3)oc(N2CCOCC2)c1 + Cc1cc(Nc2cc(N3CCN(C)CC3)nc(Sc3ccc(NC(=O)C4CC4)cc3)n2)n[nH]1 [Tozasertib] (partner 0.1 µM)
relative viability ([1]; first compound 0.08 µM): 0.357
relative viability ([1]; first compound 0.253 µM): 0.357
relative viability ([1]; first compound 0.8 µM): 0.351
relative viability ([1]; first compound 2.53 µM): 0.339
relative viability ([1]; first compound 8 µM): 0.353
relative viability ([2]; first compound 0.08 µM): 0.213
relative viability ([2]; first compound 0.253 µM): 0.186
relative viability ([2]; first compound 0.8 µM): 0.248
relative viability ([2]; first compound 2.53 µM): 0.163
relative viability ([2]; first compound 8 µM): 0.18
relative viability ([3]; first compound 0.08 µM): 0.417
relative viability ([3]; first compound 0.253 µM): 0.478
relative viability ([3]; first compound 0.8 µM): 0.539
relative viability ([3]; first compound 2.53 µM): 0.411
relative viability ([3]; first compound 8 µM): 0.389
relative viability ([4]; first compound 0.08 µM): 0.609
relative viability ([4]; first compound 0.253 µM): 0.582
relative viability ([4]; first compound 0.8 µM): 0.592
relative viability ([4]; first compound 2.53 µM): 0.64
relative viability ([4]; first compound 8 µM): 0.567
relative viability ([5]; first compound 0.08 µM): 0.271
relative viability ([5]; first compound 0.253 µM): 0.261
relative viability ([5]; first compound 0.8 µM): 0.265
relative viability ([5]; first compound 8 µM): 0.26
relative viability ([6]; first compound 0.08 µM): 0.383
relative viability ([6]; first compound 0.253 µM): 0.375
relative viability ([6]; first compound 0.8 µM): 0.502
relative viability ([6]; first compound 2.53 µM): 0.472
relative viability ([6]; first compound 8 µM): 0.421
relative viability ([7]; first compound 0.08 µM): 0.462
relative viability ([7]; first compound 0.253 µM): 0.409
relative viability ([7]; first compound 0.8 µM): 0.46
relative viability ([7]; first compound 2.53 µM): 0.415
relative viability ([7]; first compound 8 µM): 0.437
relative viability ([8]; first compound 0.08 µM): 0.521
relative viability ([8]; first compound 0.253 µM): 0.511
relative viability ([8]; first compound 0.8 µM): 0.483
relative viability ([8]; first compound 2.53 µM): 0.52
relative viability ([8]; first compound 8 µM): 0.346
relative viability ([9]; first compound 0.08 µM): 0.505
relative viability ([9]; first compound 0.253 µM): 0.495
relative viability ([9]; first compound 0.8 µM): 0.472
relative viability ([9]; first compound 2.53 µM): 0.532
relative viability ([9]; first compound 8 µM): 0.466
relative viability ([10]; first compound 0.08 µM): 0.223
relative viability ([10]; first compound 0.253 µM): 0.22
relative viability ([10]; first compound 0.8 µM): 0.205
relative viability ([10]; first compound 2.53 µM): 0.228
relative viability ([10]; first compound 8 µM): 0.207
relative viability ([11]; first compound 0.08 µM): 0.437
relative viability ([11]; first compound 0.253 µM): 0.428
relative viability ([11]; first compound 0.8 µM): 0.504
relative viability ([11]; first compound 2.53 µM): 0.39
relative viability ([11]; first compound 8 µM): 0.307
relative viability ([12]; first compound 0.08 µM): 0.471
relative viability ([12]; first compound 0.253 µM): 0.458
relative viability ([12]; first compound 0.8 µM): 0.392
relative viability ([12]; first compound 2.53 µM): 0.294
relative viability ([12]; first compound 8 µM): 0.326
relative viability ([13]; first compound 0.08 µM): 0.441
relative viability ([13]; first compound 0.253 µM): 0.604
relative viability ([13]; first compound 0.8 µM): 0.759
relative viability ([13]; first compound 2.53 µM): 0.686
relative viability ([13]; first compound 8 µM): 0.867
relative viability ([14]; first compound 0.08 µM): 0.296
relative viability ([14]; first compound 0.253 µM): 0.292
relative viability ([14]; first compound 0.8 µM): 0.32
relative viability ([14]; first compound 2.53 µM): 0.232
relative viability ([14]; first compound 8 µM): 0.224
relative viability ([15]; first compound 0.08 µM): 0.861
relative viability ([15]; first compound 0.253 µM): 0.871
relative viability ([15]; first compound 0.8 µM): 0.827
relative viability ([15]; first compound 2.53 µM): 0.805
relative viability ([15]; first compound 8 µM): 0.714
relative viability ([16]; first compound 0.08 µM): 0.184
relative viability ([16]; first compound 0.253 µM): 0.165
relative viability ([16]; first compound 0.8 µM): 0.176
relative viability ([16]; first compound 2.53 µM): 0.162
relative viability ([16]; first compound 8 µM): 0.16
relative viability ([17]; first compound 0.08 µM): 0.517
relative viability ([17]; first compound 0.253 µM): 0.376
relative viability ([17]; first compound 0.8 µM): 0.451
relative viability ([17]; first compound 2.53 µM): 0.377
relative viability ([17]; first compound 8 µM): 0.412
relative viability ([18]; first compound 0.08 µM): 0.667
relative viability ([18]; first compound 0.253 µM): 0.752
relative viability ([18]; first compound 0.8 µM): 0.72
relative viability ([18]; first compound 2.53 µM): 0.638
relative viability ([18]; first compound 8 µM): 0.681
relative viability ([19]; first compound 0.08 µM): 0.494
relative viability ([19]; first compound 0.253 µM): 0.446
relative viability ([19]; first compound 0.8 µM): 0.464
relative viability ([19]; first compound 2.53 µM): 0.449
relative viability ([19]; first compound 8 µM): 0.467
relative viability ([20]; first compound 0.08 µM): 0.594
relative viability ([20]; first compound 0.253 µM): 0.572
relative viability ([20]; first compound 0.8 µM): 0.548
relative viability ([20]; first compound 8 µM): 0.554
relative viability ([21]; first compound 0.08 µM): 0.867
relative viability ([21]; first compound 0.253 µM): 0.803
relative viability ([21]; first compound 0.8 µM): 0.653
relative viability ([21]; first compound 2.53 µM): 0.341
relative viability ([21]; first compound 8 µM): 0.299
